± gives the standard deviation of the averaged measurements.
How the values were obtained:
Conditions in all cases: exposure time: 72 h
[1] = system: E57 (patient-derived glioblastoma stem cells of mesenchymal subtype); assay: phenotypic distance (Euclidean, principal components) from DMSO controls (arbitrary units); higher = stronger morphological change
[2] = system: E28 (patient-derived glioblastoma stem cells of classical subtype); assay: as above
[3] = system: E21 (patient-derived glioblastoma stem cells of mesenchymal subtype); assay: as above
[4] = system: FT3469 (normal neural stem cell line); assay: as above
[5] = system: E34 (patient-derived glioblastoma stem cells of proneural subtype); assay: as above
[6] = system: E13 (patient-derived glioblastoma stem cells of classical subtype); assay: as above
[7] = system: E57; assay: surviving fraction (nuclei count normalised to DMSO); higher = more cells surviving (less toxic)
[8] = system: E28; assay: as above
[9] = system: E21; assay: as above
[10] = system: FT3469; assay: as above
[11] = system: E34; assay: as above
[12] = system: E13; assay: as above
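Wherever phenotypic distance (Euclidean, principal components) from DMSO controls is given: cell Painting imaging in 384-well plates, CellProfiler features reduced to at least 20 principal components, Euclidean distance versus same-plate DMSO vehicle wells (0.1% v/v), median over six images per well.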
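Wherever surviving fraction (nuclei count normalised to DMSO) is given: nuclei counted by high-content imaging of Hoechst-stained cells in laminin-coated 384-well plates, relative to 0.1% DMSO vehicle wells, with staurosporine as cell-death control.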

CC(C)C[C@H](NC(=O)[C@H](Cc1ccccc1)C[C@@H](O)[C@H](Cc1ccccc1)NC(=O)OC(C)(C)C)C(=O)N[C@@H](Cc1ccccc1)C(N)=O [L-685,458]
Conditions | phenotypic distance | surviving fraction
[1], 4.1 nM | 0.808 | –
[1], 4.11523 nM | 1.06 | –
[1], 12.3 nM | 1.19 | –
[1], 12.34567901 nM | 0.938 | –
[1], 37 nM | 1.05 | –
[1], 37.037 nM | 0.959 | –
[1], 111.1 nM | 1.22 | –
[1], 111.1111111 nM | 0.783 | –
[1], 333.3 nM | 0.893 | –
[1], 333.333 nM | 1.03 | –
[1], 1000 nM | 1.1 ± 0.095 | –
[1], 3000 nM | 1.07 ± 0.29 | –
[2], 4.1 nM | 0.474 | –
[2], 4.11523 nM | 0.565 | –
[2], 12.3 nM | 0.894 | –
[2], 12.34567901 nM | 0.663 | –
[2], 37 nM | 0.847 | –
[2], 37.037 nM | 0.502 | –
[2], 111.1 nM | 0.482 | –
[2], 111.1111111 nM | 0.958 | –
[2], 333.3 nM | 0.937 | –
[2], 333.333 nM | 0.39 | –
[2], 1000 nM | 0.79 ± 0.3 | –
[2], 3000 nM | 0.756 ± 0.4 | –
[3], 4.1 nM | 0.782 | –
[3], 4.11523 nM | 0.593 | –
[3], 12.3 nM | 0.577 | –
[3], 12.34567901 nM | 0.764 | –
[3], 37 nM | 0.535 | –
[3], 37.037 nM | 0.752 | –
[3], 111.1 nM | 0.68 | –
[3], 111.1111111 nM | 0.628 | –
[3], 333.3 nM | 0.73 | –
[3], 333.333 nM | 0.786 | –
[3], 1000 nM | 0.724 ± 0.13 | –
[3], 3000 nM | 0.836 ± 0.1 | –
[4], 4.1 nM | 0.822 | –
[4], 4.11523 nM | 0.544 | –
[4], 12.3 nM | 0.633 | –
[4], 12.34567901 nM | 0.898 | –
[4], 37 nM | 0.582 | –
[4], 37.037 nM | 0.598 | –
[4], 111.1 nM | 1.41 | –
[4], 111.1111111 nM | 0.791 | –
[4], 333.3 nM | 0.871 | –
[4], 333.333 nM | 0.681 | –
[4], 1000 nM | 0.906 ± 0.059 | –
[4], 3000 nM | 1.06 ± 0.32 | –
[5], 4.1 nM | 1.11 | –
[5], 4.11523 nM | 0.526 | –
[5], 12.3 nM | 0.954 | –
[5], 12.34567901 nM | 0.619 | –
[5], 37 nM | 0.627 | –
[5], 37.037 nM | 0.56 | –
[5], 111.1 nM | 0.75 | –
[5], 111.1111111 nM | 0.762 | –
[5], 333.3 nM | 1.1 | –
[5], 333.333 nM | 0.452 | –
[5], 1000 nM | 0.948 ± 0.099 | –
[5], 3000 nM | 1.12 ± 0.25 | –
[6], 4.1 nM | 0.562 | –
[6], 4.11523 nM | 0.913 | –
[6], 12.3 nM | 0.877 | –
[6], 12.34567901 nM | 0.727 | –
[6], 37 nM | 0.594 | –
[6], 37.037 nM | 0.991 | –
[6], 111.1 nM | 0.891 | –
[6], 111.1111111 nM | 2.26 | –
[6], 333.3 nM | 0.794 | –
[6], 333.333 nM | 0.929 | –
[6], 1000 nM | 1.66 ± 1.3 | –
[6], 3000 nM | 0.881 ± 0.11 | –
[7], 4.1 nM | – | 1.04
[7], 4.11523 nM | – | 0.963
[7], 12.3 nM | – | 0.967
[7], 12.34567901 nM | – | 0.988
[7], 37 nM | – | 0.958
[7], 37.037 nM | – | 0.998
[7], 111.1 nM | – | 1.01
[7], 111.1111111 nM | – | 1.03
[7], 333.3 nM | – | 1.08
[7], 333.333 nM | – | 0.989
[7], 1000 nM | – | 1.04 ± 0.037
[7], 3000 nM | – | 1 ± 0.024
[8], 4.1 nM | – | 0.997
[8], 4.11523 nM | – | 1.1
[8], 12.3 nM | – | 1.15
[8], 12.34567901 nM | – | 0.885
[8], 37 nM | – | 0.825
[8], 37.037 nM | – | 1.02
[8], 111.1 nM | – | 1.11
[8], 111.1111111 nM | – | 0.813
[8], 333.3 nM | – | 0.795
[8], 333.333 nM | – | 1.02
[8], 1000 nM | – | 0.858 ± 0.077
[8], 3000 nM | – | 0.834 ± 0.13
[9], 4.1 nM | – | 0.96
[9], 4.11523 nM | – | 0.891
[9], 12.3 nM | – | 0.969
[9], 12.34567901 nM | – | 0.958
[9], 37 nM | – | 0.95
[9], 37.037 nM | – | 0.941
[9], 111.1 nM | – | 1.03
[9], 111.1111111 nM | – | 1.03
[9], 333.3 nM | – | 0.861
[9], 333.333 nM | – | 1.04
[9], 1000 nM | – | 1.05 ± 0.053
[9], 3000 nM | – | 0.948 ± 0.022
[10], 4.1 nM | – | 0.944
[10], 4.11523 nM | – | 0.979
[10], 12.3 nM | – | 1.02
[10], 12.34567901 nM | – | 0.858
[10], 37 nM | – | 0.9
[10], 37.037 nM | – | 1.03
[10], 111.1 nM | – | 0.901
[10], 111.1111111 nM | – | 0.984
[10], 333.3 nM | – | 0.882
[10], 333.333 nM | – | 0.884
[10], 1000 nM | – | 0.867 ± 0.076
[10], 3000 nM | – | 0.838 ± 0.065
[11], 4.1 nM | – | 0.787
[11], 4.11523 nM | – | 0.957
[11], 12.3 nM | – | 1.02
[11], 12.34567901 nM | – | 0.895
[11], 37 nM | – | 0.964
[11], 37.037 nM | – | 1.09
[11], 111.1 nM | – | 0.946
[11], 111.1111111 nM | – | 0.976
[11], 333.3 nM | – | 0.746
[11], 333.333 nM | – | 1.15
[11], 1000 nM | – | 1 ± 0.059
[11], 3000 nM | – | 0.924 ± 0.091
[12], 4.1 nM | – | 1.06
[12], 4.11523 nM | – | 1.16
[12], 12.3 nM | – | 1.04
[12], 12.34567901 nM | – | 1.1
[12], 37 nM | – | 1.01
[12], 37.037 nM | – | 0.999
[12], 111.1 nM | – | 1.18
[12], 111.1111111 nM | – | 1.01
[12], 333.3 nM | – | 1.02
[12], 333.333 nM | – | 1.09
[12], 1000 nM | – | 1.14 ± 0.11
[12], 3000 nM | – | 1.01 ± 0.018
